Results taken from patent publication US20200246365A1, “COMPOUNDS, PHARMACEUTICAL COMPOSITIONS AND USE THEREOF AS INHIBITORS OF RAN GTPASE” (THE ROYAL INSTITUTION FOR THE ADVANCEMENT OF LEARNING / …, priority 2017, published 2020).

How the values were obtained:
[1] = biological target: T1, recombinant human Ran protein (Homo sapiens, UniProt P62826); test: Surface Plasmon Resonance (SPR) binding to immobilized Ran; conditions: different compound concentrations, reached saturation
T1 construct: Recombinant Ran protein was purchased from Sigma-Aldrich Inc. (R3152)
Procedure: SPR experiments were carried out using the Biacore 3000 system. Recombinant Ran protein was purchased from Sigma-Aldrich Inc. (R3152). The running buffer contained PBS, pH7.4, 1 mM GDP, 2 mM MgCl2 and 0.2% DMSO. The regeneration buffer contained 10 mM glycine (pH 2.5). Ran-GDP protein was immobilized onto a CM5 chip; samples of compounds in running buffer were injected at 30 μL/min for 10 minutes contact time followed by 5 minutes regeneration. Kd was calculated using the GraphPad Prism 5 software.

TOV112D cells = test: Clonogenic survival assay, TOV112D; assay type: cell-based, human
Procedure: (§1) The human EOC cell lines used (TOV81D, TOV112D, OV90, TOV21G, OV866(2), TOV1369(R), OV1369(R2), TOV1946, OV1946, TOV2295(R), OV4485) were derived in our laboratory from patients' tumors (TOV) or ascites (OV). All EOC cell lines were maintained in a low oxygen condition of 7% O2 and 5% CO2 and grown in OSE medium (Wisent, Montreal, QC) supplemented with 10% FBS (Wisent), 0.5 μg/mL amphotericin B (Wisent) and 50 μg/mL gentamicin (Life Technologies Inc., Burlington, ON). The human retinal epithelial cell line ARPE-19 was purchased from American Type Culture Collection (ATCC, Manassas, Va.) and maintained in DMEM-F12 (Wisent) supplemented with 10% FBS (Wisent), 0.5 μg/mL amphotericin B (Wisent) and 50 μg/mL gentamicin (Life Technologies Inc.).
(§2) Clonogenic assays were performed as previously described. Colonies were counted under a stereo microscope and reported as percent of control. IC50 values were determined using Graph Pad Prism 5 software (GraphPad Software Inc., San Diego, Calif.). Each experiment was performed in duplicate and repeated three times. Sensitivity of the cell lines to small molecules inhibitors of Ran was assessed using a concentration range of 0-50 μM.
(§3) Small molecules inhibitors of Ran were dissolved in 100% dimethyl sulfoxide (DMSO) and then further diluted in complete culture media for in vitro experiments. Drugs were added 24 hours after seeding.

ARPE-19 cells = test: Clonogenic survival assay, ARPE-19; assay type: cell-based, human
Procedure: as §1, §2, §3

[2] = system: other aneuploid EOC cells; test: IncuCyte cell proliferation assay, other aneuploid EOC cell lines; assay type: cell-based, human; conditions: 40 μM
Procedure: as §1
Cells (2,000 cells/well) were plated in a 96-well plate. The next day, compounds were added at the indicated concentrations. Following treatment, cell confluence was imaged by phase contrast using the IncuCyte live cell monitoring system (Essen BioScience, Ann Arbor, Mich.). Frames were captured at 2-hour intervals using a 10× objective. For Ran knock down experiments, cells were seeded in a 96-well plate (4,000 cells/well) directly after transfection. Cell confluence monitoring started the next day as described above.
as §3

Ran-GTP [3] = biological target: T2, Ran-GTP (Homo sapiens, UniProt P62826); test: Ran activation (Ran-GTP pull-down) assay in TOV112D cells; assay type: cell-based; conditions: 1 hour treatment, vs DMSO
Procedure: Cells were seeded onto 6-well tissue culture plates in such a way that cell confluence reaches approximately 70% the day of experiment. The day of experiment cells were treated for 1 hour with the indicated compounds prior to protein extraction and quantification. Assays were performed using the Ran activation assay kit (Cell Biolabs). Briefly, 400 μg of lysates were incubated for one hour at 4° C. with agarose beads conjugated to RANBP1, which specifically binds Ran-GTP. Beads were pelleted, washed, and re-suspended in SDS-PAGE buffer, followed by immunoblotting with an anti-Ran antibody.

Rac1-GTP = Rac1-GTP (Homo sapiens, UniProt P63000); test: Rac1-GTP pull-down assay; assay type: cell-based; conditions: 50 μM M36 (FIG. 7F)
RhoA = RhoA (Homo sapiens, UniProt P61586); test: RhoA activation ELISA in TOV112D cells; assay type: cell-based; conditions: vs DMSO
Cdc42 = Cdc42 (Homo sapiens, UniProt P60953); test: Cdc42 activation ELISA in TOV112D cells; assay type: cell-based; conditions: vs DMSO
cleaved PARP = test: Apoptosis by PARP cleavage (Western blot); assay type: cell-based, human; conditions: 96 hours after treatment
Procedure: Cells were lysed with RIPA buffer containing protease inhibitors. Whole cell lysates were run through a Bradford assay (Thermo Fisher Scientific) for protein quantification. Around 25-50 μg of proteins were separated onto 12.5% SDS-PAGE and transferred onto nitrocellulose membranes. The resultant blots were probed with Ran (1:10000, sc-271376 Santa Cruz Biotechnology, Dallas, Tex.), cleaved PARP (1:1000, #9541, Cell Signaling Technology Inc., Danvers, Mass.), GAPDH (1:2500, #2118, Cell Signaling Technology Inc.) or beta-actin (1:50000, ab6276, Abcam Inc., Toronto, ON, Canada) primary antibodies overnight at 4° C. then with peroxidase-conjugated secondary antibodies for 2 hours at room temperature. Proteins were detected using enhanced chemiluminescence (Thermo Fisher Scientific).

Ran-GTP [4] = biological target: T2, Ran-GTP; test: Ran-GTP immunofluorescence in TOV112D cells; assay type: cell-based; conditions: TOV112D cells vs DMSO-treated
Procedure: M36 and R28-treated and control TOV112D cells grown on coverslips were washed with 1×PBS, fixed in 4% paraformaldehyde and permeabilized with 0.25% Triton X-100 (Sigma-Aldrich Inc.). After blocking (4% BSA and 4% FBS in PBS), coverslips were incubated with the monoclonal anti-RanGTP antibody (26915, NewEastBioscences) diluted 1:100 in blocking buffer for 2 hours at room temperature. Subsequently, samples were incubated with Cy-5 secondary antibody (1:500, Life Technologies Inc.) for 1 hour and coverslips were mounted onto slides using Prolong® Gold anti-fade reagent with DAPI (Life Technologies Inc.). Samples were visualized under a Zeiss microscope (Zeiss observer Z1) with a 20× objective.

[5] = Pharmacokinetics in CD1 mice; assay type: in vivo
Procedure: For the pharmacokinetic studies, 6-week-old female CD1 mice (Charles River laboratories, Senneville, QC, Canada) received a single intravenous or intraperitoneal injection of M36 or QR20 (50 mg/kg), dissolved in DMSO 10%, Kolliphor® EL 10%, PEG-400 20% and PBS 60% (QR20 was also dissolved in DMSO 10%, PBS 90%). For each time point (15 minutes, 30 minutes, […], 1 hour, 2 hours and 6 hours), 3 mice were sacrificed and blood was collected by cardiac puncture. Thereafter, the plasma level of each compound was measured by mass spectrometry.

[6] = Tolerance test in NRG mice; assay type: in vivo; conditions: daily i.p. 75 mg/kg for 15 days
Procedure: For the tolerance test, M36 and QR20 compounds were dissolved in DMSO 10%, Kolliphor® EL 10%, PEG-400 20% and PBS 60% and injected intraperitoneally into 6-week-old female Nod Rag Gamma (NRG) mice (The Jackson laboratory, Bar Harbor, Me.) daily at 75 mg/kg. During this study, mice (n=3) were monitored for survival and weight loss/gain.

[7] = system: prostate cancer cell lines (LNCaP, 22RV1, PC3, DU145); test: Cell proliferation, prostate cancer cell lines; assay type: cell-based
γH2AX foci = γH2AX foci immunostaining in TOV112D cells; assay type: cell-based, human
RAD51/Geminin foci (HR) = test: RAD51/Geminin foci after gamma-irradiation in TOV112D cells; assay type: cell-based, human
53BP1 = 53BP1 immunofluorescence after gamma-irradiation in TOV112D cells; assay type: cell-based, human
[8] = system: TOV112D cells overexpressing DA Ran; test: Cell survival of TOV112D cells transfected with Ran WT or dominant active mutant; assay type: cell-based, human

Chain of Cdc42 (P60953 whole entry): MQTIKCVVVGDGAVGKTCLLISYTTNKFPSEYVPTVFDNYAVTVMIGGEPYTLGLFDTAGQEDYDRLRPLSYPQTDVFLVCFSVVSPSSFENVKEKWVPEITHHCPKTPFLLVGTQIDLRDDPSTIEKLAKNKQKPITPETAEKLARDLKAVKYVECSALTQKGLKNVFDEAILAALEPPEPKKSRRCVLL
Chain of RhoA (P61586 whole entry): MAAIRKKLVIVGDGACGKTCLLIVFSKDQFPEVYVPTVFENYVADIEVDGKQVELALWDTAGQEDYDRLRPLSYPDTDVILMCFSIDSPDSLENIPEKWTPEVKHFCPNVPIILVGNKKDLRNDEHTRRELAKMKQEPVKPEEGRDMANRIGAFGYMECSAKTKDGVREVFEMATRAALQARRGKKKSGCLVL

Which results are given for `NC(=S)[C@@H]1O[C@H](COCc2ccc(F)cc2)[C@@H](OCc2ccc(F)cc2)[C@H]1OCc1ccc(F)cc1` [M36]?
binding to the immobilized Ran protein [1]: concentration-dependent binding; IC50 (TOV112D cells; Homo sapiens, TOV112D, read-out: IC50 value for the TOV112D cell line by clonogenic assay): 10 ± 0.36 µM; colony formation of TOV112D cells (TOV112D cells; single dose 10 μM): inhibited colony formation of TOV112D cells; effect on normal ARPE-19 cell line in detailed clonogenic assay (ARPE-19 cells; different concentrations): almost no effect; colony formation of ARPE-19 cells (ARPE-19 cells; single dose 10 μM): without affecting the ARPE-19 cells; cell proliferation of other aneuploid EOC cells [2]: inhibited cell proliferation; active Ran-GTP levels (pull-down) (Ran-GTP [3]): concentration-dependent decrease in Ran-GTP levels; Rac1-GTP levels (pull-down) (Rac1-GTP): no decreased levels of Rac1-GTP; activation of RhoA (RhoA-GTP levels) (RhoA): does not inhibit the activation; activation of Cdc42 (Cdc42-GTP levels) (Cdc42): does not inhibit the activation; apoptosis (cleaved PARP on Western blot) (cleaved PARP): induced cell apoptosis; Ran-GTP levels by immunofluorescence (Ran-GTP [4]): no detectable levels of Ran-GTP; pharmacokinetics profile based on AUC values ([5]; 50 mg/kg): good pharmacokinetics profiles; absorption after intraperitoneal vs intravenous injection (plasma levels) ([5]; 50 mg/kg single injection): less absorbed than compound QR20; persistence in the circulation ([5]; 50 mg/kg single injection): persists longer in the circulation; tolerance [6]: well tolerated; weight loss [6]: no weight loss; effect on prostate cancer cell lines [7]: also effective in prostate cancer cell lines; DNA damage (γH2AX foci) (γH2AX foci; 48 hours or 72 hours treatment): increases DNA damage; DNA double-strand breaks repair (γH2AX foci clearance) (γH2AX foci; after gamma-irradiation): delays DNA double-strand breaks repair; HR pathway (RAD51/Geminin foci) (RAD51/Geminin foci (HR)): inhibiting the HR and NHEJ pathways; NHEJ pathway (53BP1 foci) (53BP1; after gamma-irradiation): inhibiting the HR and NHEJ pathways; nuclear localization of 53BP1 (53BP1; cytoplasmic staining): interferes with the nuclear localization of 53BP1; inhibition of cell proliferation with DA Ran overexpression [8]: attenuated when DA Ran was overexpressed
